Source: ChEMBL document CHEMBL5325408, “Design, synthesis, and biological activity studies on benzimidazole derivatives targeting myeloperoxidase” (Eur J Med Chem, 2023)
pIC50: −log10 of the molar value.

How the values were obtained:
[1] = biological target: T1, Myeloperoxidase (Homo sapiens) (UniProt P05164); experiment: Inhibition of human MPO peroxidase activity at 100 uM incubated in presence of H2O2 by amplex red assay relative to control
T1 sequence (whole entry): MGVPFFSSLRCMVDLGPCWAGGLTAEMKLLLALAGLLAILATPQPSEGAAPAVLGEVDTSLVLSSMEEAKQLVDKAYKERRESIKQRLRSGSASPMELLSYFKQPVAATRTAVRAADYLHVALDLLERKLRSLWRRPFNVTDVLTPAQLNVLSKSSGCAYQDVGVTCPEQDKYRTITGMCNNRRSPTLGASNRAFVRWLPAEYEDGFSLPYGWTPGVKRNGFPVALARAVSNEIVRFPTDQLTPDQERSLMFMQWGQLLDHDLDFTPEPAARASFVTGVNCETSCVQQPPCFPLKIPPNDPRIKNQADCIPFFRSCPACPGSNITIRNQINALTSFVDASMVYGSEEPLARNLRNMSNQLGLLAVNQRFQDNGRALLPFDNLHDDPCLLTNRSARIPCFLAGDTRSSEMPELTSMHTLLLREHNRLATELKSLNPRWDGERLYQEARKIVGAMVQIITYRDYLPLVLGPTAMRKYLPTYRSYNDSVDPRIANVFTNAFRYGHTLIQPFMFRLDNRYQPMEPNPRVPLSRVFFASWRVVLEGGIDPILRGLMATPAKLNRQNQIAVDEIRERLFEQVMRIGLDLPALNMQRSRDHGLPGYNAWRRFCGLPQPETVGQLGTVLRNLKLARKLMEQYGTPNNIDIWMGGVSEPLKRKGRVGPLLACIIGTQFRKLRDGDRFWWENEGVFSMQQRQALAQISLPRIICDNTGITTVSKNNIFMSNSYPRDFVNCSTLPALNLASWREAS

Myeloperoxidase [2] = biological target: T2, Myeloperoxidase (Homo sapiens, UniProt P05164); experiment: Inhibition of human MPO using taurine as substrate assessed as reduction in substrate chlorination incubated for 30 mins by taurine-chloramine assay
T2 sequence (P05164 whole entry): T1 sequence (whole entry)

[3] = biological target: T1, Myeloperoxidase (Homo sapiens); experiment: Inhibition of human MPO using taurine as substrate assessed as reduction in substrate chlorination at 20 uM incubated for 30 mins by taurine-chloramine assay relative to control
[4] = Antioxidant activity assessed as HOCl scavenging activity at 100 uM incubated for 10 mins in presence of TNB and taurine by absorbance based assay relative to control; type: functional
Myeloperoxidase [5] = biological target: T2, Myeloperoxidase; experiment: Inhibition of human MPO peroxidase activity incubated in presence of H2O2 by amplex red assay

| SMILES | inhibition [3] [%] | further results |
| --- | --- | --- |
| COc1ccc(NC(=O)Cn2c(=S)[nH]c3ccccc32)cc1 | 81.7 | inhibition [1]: 30.5%; pIC50 (Myeloperoxidase [2]): 5.39; Activity [4]: 2.83% |
| O=C(Cn1c(=S)[nH]c2ccccc21)NCc1ccccc1 | 95.3 | inhibition [1]: 53.3%; pIC50 (Myeloperoxidase [5]): 4.01; pIC50 (Myeloperoxidase [2]): 5.36 |
| O=C(Cn1c(=S)[nH]c2ccccc21)Nc1cccc(Cl)c1 | 75.7 | inhibition [1]: 29.8%; pIC50 (Myeloperoxidase [2]): 5.03; Activity [4]: 1.04% |
| O=C(Cn1c(Cl)nc2ccccc21)Nc1ccccc1[N+](=O)[O-] | 31.8 |  |
| COc1ccccc1NC(=O)Cn1c(Cl)nc2ccccc21 | 39.3 |  |
| O=C(Cn1c(Cl)nc2ccccc21)Nc1ccc([N+](=O)[O-])cc1 | 54 |  |
| O=C(Cn1c(=S)[nH]c2ccccc21)N1CCCCC1 | 58.2 |  |
| Cc1ccccc1NC(=O)CSc1nc2ccccc2[nH]1 | 44.9 |  |
| O=C(Cn1c(=S)[nH]c2ccccc21)N1CCOCC1 | 52.2 |  |
| CCOC(=O)Cn1c(=S)[nH]c2ccccc21 | 51.3 |  |
| COc1ccc(NC(=O)CSc2nc3ccccc3[nH]2)cc1 | 50 |  |
| O=C(CSc1nc2ccccc2[nH]1)Nc1ccc([N+](=O)[O-])cc1 | 62.1 |  |
| O=C(Cn1c(=S)[nH]c2ccccc21)Nc1ccc(Cl)cc1 | 85.3 | inhibition [1]: 21.7%; pIC50 (Myeloperoxidase [2]): 5.11; Activity [4]: 5.85% |
| O=C(Cn1c(=S)[nH]c2ccccc21)Nc1cccc([N+](=O)[O-])c1 | 61.9 |  |
| O=C(Cn1c(=S)[nH]c2ccccc21)NO | 51.2 |  |
| O=C(Cn1c(Cl)nc2ccccc21)Nc1ccccc1 | 27.9 |  |
| COc1cccc(NC(=O)Cn2c(Cl)nc3ccccc32)c1 | 46.6 |  |
| COc1cc(NC(=O)Cn2c(=S)[nH]c3ccccc32)cc(OC)c1OC | 62.6 |  |
| COc1cc(NC(=O)Cn2c(Cl)nc3ccccc32)cc(OC)c1OC | 35.7 |  |
| Cc1cccc(NC(=O)Cn2c(Cl)nc3ccccc32)c1 | 34.8 |  |
| O=C(CSc1nc2ccccc2[nH]1)Nc1ccccc1[N+](=O)[O-] | 48.5 |  |
| Cc1ccc(NC(=O)Cn2c(Cl)nc3ccccc32)cc1 | 36.5 |  |
| O=C(Cn1c(Cl)nc2ccccc21)Nc1cccc(Cl)c1 | 67.8 |  |
| COc1ccccc1NC(=O)CSc1nc2ccccc2[nH]1 | 72.6 | inhibition [1]: 0%; pIC50 (Myeloperoxidase [2]): 4.98 |
| Cc1ccc(NC(=O)Cn2c(S)nc3ccccc32)cc1 | 41.1 |  |
| COc1cccc(NC(=O)Cn2c(=S)[nH]c3ccccc32)c1 | 65.5 |  |
| NNC(=O)Cn1c(=S)[nH]c2ccccc21 | 93.2 | inhibition [1]: 71%; pIC50 (Myeloperoxidase [5]): 4.08; pIC50 (Myeloperoxidase [2]): 6.41 |
| O=C(CSc1nc2ccccc2[nH]1)N1CCCCC1 | 32 |  |

| SMILES | inhibition [3] [%] | further results |
| --- | --- | --- |
| O=C(Cn1c(Cl)nc2ccccc21)Nc1ccc(Cl)cc1 | 63.8 |  |
| O=C(Cn1c(Cl)nc2ccccc21)Nc1ccccc1Cl | 21.9 |  |
| O=C(Cn1c(Cl)nc2ccccc21)NCc1ccccc1 | 24.9 |  |
| Cc1ccc(NC(=O)CSc2nc3ccccc3[nH]2)cc1 | 73 | inhibition [1]: 0%; pIC50 (Myeloperoxidase [2]): 5.07 |
| O=C(Cn1c(=S)[nH]c2ccccc21)Nc1ccccc1 | 91.9 | inhibition [1]: 57.5%; pIC50 (Myeloperoxidase [5]): 4.02; pIC50 (Myeloperoxidase [2]): 5.25 |
| O=C(CSc1nc2ccccc2[nH]1)Nc1ccccc1Cl | 54.4 |  |
| O=C(Cn1c(=S)[nH]c2ccccc21)Nc1ccc([N+](=O)[O-])cc1 | 61.4 |  |
| COc1cccc(NC(=O)CSc2nc3ccccc3[nH]2)c1 | 61.4 |  |
| O=C(Cn1c(Cl)nc2ccccc21)Nc1cccc([N+](=O)[O-])c1 | 44 |  |
| COc1ccc(NC(=O)Cn2c(Cl)nc3ccccc32)cc1 | 36.9 |  |
| Cc1ccccc1NC(=O)Cn1c(=S)[nH]c2ccccc21 | 93 | inhibition [1]: 24%; pIC50 (Myeloperoxidase [2]): 5.37; Activity [4]: 0.94% |
| O=C(Cn1c(=S)[nH]c2ccccc21)Nc1ccccc1Cl | 89.4 | inhibition [1]: 47.6%; pIC50 (Myeloperoxidase [2]): 5.18; Activity [4]: 5.47% |
| O=C(Cn1c(=S)[nH]c2ccccc21)Nc1ccccc1[N+](=O)[O-] | 70.2 | inhibition [1]: 22.6%; pIC50 (Myeloperoxidase [2]): 5.25 |
| COc1ccccc1NC(=O)Cn1c(=S)[nH]c2ccccc21 | 94.3 | inhibition [1]: 19.1%; pIC50 (Myeloperoxidase [2]): 5.43; Activity [4]: 8.77% |
| O=C(Cn1c(Cl)nc2ccccc21)N1CCOCC1 | 32.7 |  |
| O=C(Cn1c(Cl)nc2ccccc21)N1CCCCC1 | 29.1 |  |
| O=C(CSc1nc2ccccc2[nH]1)Nc1cccc(Cl)c1 | 56.1 |  |
| CCOC(=O)Cn1c(Cl)nc2ccccc21 | 33.3 |  |
| Cc1cccc(NC(=O)Cn2c(=S)[nH]c3ccccc32)c1 | 91.4 | inhibition [1]: 26.7%; pIC50 (Myeloperoxidase [2]): 5.41; Activity [4]: 6.79% |
| O=C(CSc1nc2ccccc2[nH]1)N1CCOCC1 | 35.9 |  |
| O=C(CSc1nc2ccccc2[nH]1)Nc1cccc([N+](=O)[O-])c1 | 62.3 |  |
| O=C(CSc1nc2ccccc2[nH]1)NCc1ccccc1 | 63.6 |  |
| O=C(CSc1nc2ccccc2[nH]1)Nc1ccc(Cl)cc1 | 52.6 |  |
| Cc1cccc(NC(=O)CSc2nc3ccccc3[nH]2)c1 | 92.5 | inhibition [1]: 4.3%; pIC50 (Myeloperoxidase [2]): 5.19 |
| O=C(CSc1nc2ccccc2[nH]1)Nc1ccccc1 | 50 |  |
| Cc1ccccc1NC(=O)Cn1c(Cl)nc2ccccc21 | 28.5 |  |
| COc1cc(NC(=O)CSc2nc3ccccc3[nH]2)cc(OC)c1OC | 68.9 |  |
